# Values joined by “and” are separate entries in the source; they are usually repeats but may differ in a detail not shown here. Identical values can stand only once.
# Experiments:
# CIDP mice = experiment: Sciatic nerve histology, CIDP mouse model; assay type: in vivo
# Method: (§1) C57BL/6 mice were received at 8 weeks of age and housed under controlled conditions for the duration of the study. Three groups of 4 animals each were assigned to the following subcutaneous treatments twice daily at 7:00 AM and 7:00 PM for 2 weeks, from 20 to 35 days after the start of disease induction: • Wild type (WT) mice receiving the vehicle, 0.9% NaCl (positive control) • CIDP mice receiving the vehicle, 0.9% NaCl (negative control) • CIDP mice receiving human AAT (AAT), 50 mg/kg per injection
# (§2) Disease induction consisted in subcutaneous injection of mouse sciatic nerve homogenate in phosphate buffer saline (PBS)+Freund's adjuvant mixture at 10 mL/kg. For each treatment, 3 different body sites injections were performed. Control mice also received three subcutaneous injections of PBS+Freund's adjuvant at the same 3 different body sites.
# On the first (Day 20) and last (Day 35) day of treatment, the neuromuscular and performance of animals was tested with a rotarod test, grip test and a sensory test using the Von Frey filament test, as well as sciatic nerve electrophysiology test. After the last treatment at Day 35, these tests were repeated, animals were sacrificed and the left sciatic nerve was sampled for histological evaluation of the number and size of […].
# plasma NfL [1] = experiment: Plasma NfL, CMT mice treated with AAT 180 mg/kg/day sc; assay type: in vivo, mouse
# From the text: Animals were received at 6 weeks of age and housed under controlled conditions for the duration of the study. The study comprised two groups of 8 transgenic mice (CMT mice) each and one group of 8 age matched wild type (WT) C57B16 mice, serving as positive control. Animals were assigned to the following subcutaneous treatments twice daily at 7:00 AM and 7:00 PM for 2 weeks, starting from 8 weeks and up to 10 weeks of age: • Wild-type (WT, no disease) mice receiving vehicle, 0.9% NaCl (positive control) • CMT1A mice receiving vehicle, 0.9% NaCl (negative control) • CMT1A mice receiving AAT at 90 mg/kg per injection (daily dose 180 mg/kg)
# (§3) The efficacy parameters included: • neuromuscular performance (rotarod latency to fall and grip strength test), • sciatic nerve electrophysiology (CMAP amplitude and NCV) • cytokine (IL-6 and TNFα), as well as NfL analysis • sciatic nerve histology (number of axons and axonal diameter),
# As supportive information for the mode of action of AAT in CMT, plasma concentration of interleukin 6 (IL-6) and TNFα were measured at Day 1 (8 weeks), Day 15 (10 weeks) and Day 30 (12 weeks). At the same timepoints, plasma levels of the biomarker of nerve damage, NfL were determined.
# [2] = test system: CMT1A mice B6.Cg-Tg(PMP22)C3Fbas/J; experiment: Grip strength, CMT mice treated with AAT 180 mg/kg/day sc; assay type: in vivo, mouse; settings: for Grip strength, group Mean: 8 animals
# Method: CMT MOUSE MODEL: Non-humanized CMT1A mice B6.Cg-Tg(PMP22)C3Fbas/J (three copies of the PMP22 gene), three groups of 8 animals each.
# DOSAGE: 180 mg/kg/day non-clinical grade AAT (Sigma)
# ADMINISTRATION: Subcutaneous (SC) (bi-daily injection of 90 mg/kg)
# Animals were received at 6 weeks of age and housed under controlled conditions for the duration of the study. The study comprised two groups of 8 transgenic mice (CMT mice) each and one group of 8 age matched wild type (WT) C57B16 mice, serving as positive control. […]
# as §3
# After the last treatment on Day 15, these tests were repeated. Animals were then left untreated for 2 additional weeks to evaluate the duration of the treatment effect. Following the 2-week treatment-free period until 12 weeks of age (Day 30), the behavioural and electrophysiological tests were repeated.
# [3] = Bodyweight, CIDP mouse model; assay type: in vivo; settings: per animal, listed as hAAT
# Method: as §1, §2
# plasma NfL [4] = experiment: Plasma NfL quantification, CIDP mouse model; assay type: in vivo; settings: for Plasma NfL, Mean Diff., CIDP + vehicle vs. CIDP + hAAT / Plasma NfL, Mean Diff., Sham negative control vs. CIDP + hAAT: Bonferroni's multiple comparisons test; for Plasma NfL concentration (Mean ± SD): CIDP mice; for NfL conc: per animal, listed as hAAT
# Method: as §1
# On the day preceding disease induction (Day 1), on the first (Day 20) and on the last (Day 35) treatment day, animals were subjected to blood samplings for the determination of neurofilament light chain (NfL), tumour necrosing factor alpha (TNFα) and TMPRSS5 levels, as described in FIG. 20. In addition, plasma levels of AAT were evaluated on the last treatment day.
# plasma IL-6 = experiment: Plasma IL-6 concentration, CMT1A mouse study (50 mg/kg twice daily); assay type: in vivo; settings: for Plasma IL-6 concentration (Mean ± SD): CMT1A mice
# Method: Animals were split in 3 groups (wild-type control (subcutaneous 0.9% NaCl), CMT1A-vehicle (subcutaneous 0.9% NaCl), CMT1A-human alpha-1 antitrypsin (subcutaneous, twice daily, 50 mg/kg per injection)) of 3 mice each (3 weeks old males of 18±2.5 g at the beginning of study) and all went through the following protocol after 7 days of acclimation on site.
# Starting from the age of 4 weeks, animals were subjected to blood samplings for the determination of interleukin-6 (IL-6) and tumor necrosing factor alpha (TNFα) levels, as described in FIG. 16.
# [5] = CIDP mice, day 35, AAT 50 mg/kg sc twice daily
# [6] = 8 weeks old (baseline, Day 1), CMT1A + AAT
# [7] = 10 weeks old (Day 15, after 2 weeks AAT 90 mg/kg sc twice daily)
# [8] = 12 weeks old (Day 30, after 2-week treatment-free period)
# [9] = baseline (6 weeks old), CMT + hAAT, individual animal
substance,measurement,setting,value
alpha1-antitrypsin (AAT) protein,axonal diameter compared to the CIDP+vehicle treated group,"CIDP mice; CIDP + AAT, day 35",significant increase
same,g-ratio compared to the CIDP+vehicle treated group,"CIDP mice; CIDP + AAT, day 35",decrease
same,total number of axons per surface compared to the vehicle treated group,"CIDP mice; CIDP + AAT, day 35",Slight but non-significant increase
same,"Sciatic nerve histology, Axonal diameter (Mean ± SEM)",CIDP mice; [5],3.82 ± 0.09 μm
same,"Sciatic nerve histology, Axons/100 μm^2 (Mean ± SEM)",CIDP mice; [5],26.00 ± 2.10
same,"Sciatic nerve histology, g-ratio (Mean ± SEM)",CIDP mice; [5],0.715 ± 0.008
same,Plasma NfL (Mean ± SD),plasma NfL [1]; [6],3.83 ± 0.61 ng/mL
same,Plasma NfL (Mean ± SD),plasma NfL [1]; [7],1.96 ± 0.46 ng/mL
same,positive effect on NfL plasma levels,"plasma NfL [1]; 12 weeks of age, after 2-week treatment-free period",remained significant
same,Plasma NfL (Mean ± SD),plasma NfL [1]; [8],4.25 ± 0.36 ng/mL
same,level of NfL,"plasma NfL [1]; CMT mice, AAT 90 mg/kg sc twice a day",reduced
same,Grip strength (Mean ± SD),[2]; [6],3.35 ± 0.27 newtons
same,"Grip strength, group Mean","[2]; 8 weeks old, CMT + hAAT 180 mg/kg/day SC",4.81 NEWTONS
same,Grip strength (Mean ± SD),[2]; [7],5.47 ± 1.11 newtons
same,grip strength vs untreated CMT animals,"[2]; 12 weeks of age, after 2-week treatment-free period, P<0.05",significantly higher
same,Grip strength (Mean ± SD),[2]; [8],3.87 ± 0.36 newtons
same,grip strength vs CMT mice not treated with AAT,"[2]; CMT mice, AAT 90 mg/kg sc twice a day, 8 to 10 weeks of age, end of treatment",significant increase
same,"Grip strength, group Mean","[2]; baseline (6 weeks old), CMT + hAAT",5.54 NEWTONS
same,"Grip strength, Mean/animal",[2]; [9],4.96 NEWTONS and 4.77 NEWTONS and 6.79 NEWTONS and 6.72 NEWTONS and 6.41 NEWTONS and 4.74 NEWTONS and 4.27 NEWTONS and 5.68 NEWTONS
same,"Grip strength, set 1",[2]; [9],6.56 NEWTONS and 5.62 NEWTONS and 7.24 NEWTONS and 5.90 NEWTONS and 4.97 NEWTONS and 4.35 NEWTONS and 6.08 NEWTONS and 6.51 NEWTONS
same,"Grip strength, set 2",[2]; [9],3.79 NEWTONS and 4.00 NEWTONS and 7.19 NEWTONS and 8.88 NEWTONS and 7.60 NEWTONS and 6.25 NEWTONS and 2.61 NEWTONS and 3.97 NEWTONS
same,"Grip strength, set 3",[2]; [9],4.52 NEWTONS and 4.69 NEWTONS and 5.93 NEWTONS and 5.37 NEWTONS and 6.66 NEWTONS and 3.63 NEWTONS and 4.13 NEWTONS and 6.57 NEWTONS
same,Bodyweight,"[3]; day 1 (before disease induction), in g (unit assumed)",20.74 and 20.81 and 19.50 and 20.65
same,Bodyweight,"[3]; day 5 (before treatment), in g (unit assumed)",20.92 and 21.07 and 20.12 and 20.71
same,Bodyweight,[3]; day 9 (before treatment),21.26 (2×) and 20.54 and 21.00
same,Bodyweight,"[3]; day 13 (before treatment), in g (unit assumed)",21.76 and 21.37 and 20.24 and 21.18
same,Bodyweight,"[3]; day 17 (before treatment), in g (unit assumed)",21.92 and 21.54 and 21.35 and 21.90
same,Bodyweight,"[3]; day 20 (first treatment day), in g (unit assumed)",22.06 and 21.58 and 21.41 and 22.04
same,Bodyweight,"[3]; day 23, in g (unit assumed)",22.21 and 21.71 and 21.43 and 22.13
same,Bodyweight,"[3]; day 26, in g (unit assumed)",22.31 and 21.78 and 21.47 and 22.20
same,Bodyweight,"[3]; day 29, in g (unit assumed)",22.49 and 21.87 and 21.53 and 22.30
same,Bodyweight,"[3]; day 32, in g (unit assumed)",22.68 and 22.00 and 21.64 and 22.45
same,Bodyweight,"[3]; day 35, in g (unit assumed)",22.79 and 22.14 and 21.65 and 22.62
same,"Plasma NfL, Mean Diff., CIDP + vehicle vs. CIDP + hAAT",plasma NfL [4]; Day 1,0.04828
same,"Plasma NfL, Mean Diff., Sham negative control vs. CIDP + hAAT",plasma NfL [4]; Day 1,0.01878
same,"Plasma NfL, Mean Diff., CIDP + vehicle vs. CIDP + hAAT",plasma NfL [4]; Day 20,0.2088
same,"Plasma NfL, Mean Diff., Sham negative control vs. CIDP + hAAT",plasma NfL [4]; Day 20,-2.85 ng/mL
same,"Plasma NfL, Mean Diff., CIDP + vehicle vs. CIDP + hAAT",plasma NfL [4]; Day 35,1.01 ng/mL
same,"Plasma NfL, Mean Diff., Sham negative control vs. CIDP + hAAT",plasma NfL [4]; Day 35,-1.88 ng/mL
same,plasma NfL concentration compared to the CIDP+vehicle treated group,"plasma NfL [4]; CIDP + AAT, day 35",significant decrease
same,Plasma NfL concentration (Mean ± SD),plasma NfL [4]; Day 1,0.29 ± 0.11 ng/mL
same,Plasma NfL concentration (Mean ± SD),plasma NfL [4]; Day 20,3.12 ± 0.86 ng/mL
same,Plasma NfL concentration (Mean ± SD),plasma NfL [4]; Day 35,2.30 ± 0.27 ng/mL
same,"NfL conc, group MEAN",plasma NfL [4]; Day 1,0.29 ng/mL
same,"NfL conc, group MEAN",plasma NfL [4]; Day 20,3.12 ng/mL
same,"NfL conc, group MEAN",plasma NfL [4]; Day 35,2.30 ng/mL
same,NfL conc,plasma NfL [4]; Day 1 (before model induction),0.3654 ng/mL and 0.2865 ng/mL and 0.3798 ng/mL and 0.1412 ng/mL
same,NfL conc,plasma NfL [4]; Day 20 (before compound treatment),3.7596 ng/mL and 2.7654 ng/mL and 3.8846 ng/mL and 2.0831 ng/mL
same,NfL conc,plasma NfL [4]; Day 35,2.4447 ng/mL and 1.9017 ng/mL and 2.3497 ng/mL and 2.5056 ng/mL
same,Plasma IL-6 concentration (Mean ± SD),plasma IL-6; Day 1 (baseline),34.19 ± 1.67 pg/mL
same,Plasma IL-6 concentration (Mean ± SD),plasma IL-6; Day 8,39.10 ± 1.91 pg/mL
same,Plasma IL-6 concentration (Mean ± SD),plasma IL-6; Day 14,84.21 ± 4.727 pg/mL
same,Plasma IL-6 concentration (Mean ± SD),plasma IL-6; Day 29,90.20 ± 3.085 ^† pg/mL
same,plasma IL-6 concentration vs animals treated with vehicle,"plasma IL-6; CMT + AAT, day 29",lower
